According to patent US4397868A, “Method of treating atherosclerosis with trisubstituted ureas” (American Cyanamid Company, priority 1982, dated 1983):

Test system: fatty acyl CoA:cholesterol acyl transferase (ACAT)
Assay: In vitro inhibition of fatty acyl CoA:cholesterol acyl transferase (ACAT), rat adrenal microsomal supernatant
Type: biochemical
Settings: test compound final concentration 5.2 μg./ml., 14C-oleoyl CoA, 37° C., 10 minutes
Experimental: A representative compound of the present invention was assayed for a biological activity related to potential use as an antiatherosclerotic agent. The compound was tested in vitro for its ability to inhibit the enzyme fatty acyl CoA:cholesterol acyl transferase (ACAT).
A representative compound was tested for its ability to inhibit ACAT according to the following procedure:
Rat adrenals were homogenized in 0.2 M monobasic potassium phosphate buffer, pH 7.4, and centrifuged at 1000 times gravity for 15 minutes at 5° C. The supernatant, containing the microsomal fraction, served as the source of the cholesterol-esterifying enzyme, fatty acyl CoA:cholesterol acyl transferase (ACAT). A mixture comprising 50 parts of adrenal supernatant, 10 parts of albumin (BSA) (50 mg./ml.), 3 parts of test compound (final concentration 5.2 μg./ml.) and 500 parts of buffer was preincubated at 37° C. for 10 minutes. After treatment with 20 parts of oleoyl CoA (^14 C-0.4 μCi) the mixture was incubated at 37° C. for 10 minutes. A control mixture, omitting the test compound, was prepared and treated in the same manner. The lipids from the incubation mixture were extracted into an organic solvent and separated by thin-layer chromatography. The cholesterol ester fraction was counted in a scintillation counter. […]

inhibited ACAT: 82%
Compound: CCCCN(Cc1ccccc1)C(=O)Nc1ccccc1 [Example 1, 1-Benzyl-1-(n-butyl)-3-(phenyl)urea]
